Assay results published in patent US12098217B2, “Fusion peptides as antimicrobial agents” (CENTRE NATIONAL DE LA RECHERCHE SCIENTIFIQUE, priority 2019, dated 2024).
Square brackets hold non-standard residues; d marks the D form. Peptide text beside a SMILES is read from it. Cha = N[C@@H](CC1CCCCC1)C(=O)O

Assays:
[1] = tested on: E. coli 70S ribosome (^Ec70S); experiment: ITC, peptide interaction with E. coli 70S ribosome; format: binding
[2] = tested on: E. coli infected kenny^drawing 2831 flies; experiment: In vivo survival assay, D. melanogaster infection model; design: species or system Drosophila melanogaster; conditions: 18.4 nl of 1 mM peptide 1 and 24 h after infection; for fold increased survival of infected flies 96 h after injection: E. coli infected kenny flies, versus PBS
Protocol: FIG. 2 concerns the in vivo survival assay using Drosophila melanogaster infection model. Seven-day-old female kenny^C02831 flies were infected by septic injury with a thin tungsten needle previously dipped in an E. coli suspension diluted in PBS and kept at 29° C. 1 and 24 hours after infection, 18.4 nl of peptides (1 mM) diluted in PBS or PBS alone were injected into the flies body cavity. (A) Survival curves. (B) Survival rate after 96 hours. (C) Lethal time 50% (LT50). Data represent means±standard errors of at least 3 independent experiments, each containing three groups of 20 flies. One-Way ANOVA test: *P<0.05, **P<0.01, ***P<0.001. ns: non-significant (P28: Onc112; P30: Onc112-P7; P120: Onc112-P7Scr).
50 ml of E. coli ATCC23754 were grown at 29° C. in LB media up to exponential phase (OD600=0.6-0.8) and centrifuged at 5.000 g for 5 min. The pellet was then diluted in 1 ml of PBS. Immune-deficient kenny^C02831 (Bou Aoun, R., Hetru, C., Troxler, L., Doucet, D., Ferrandon, D., and Matt, N. (2011). Analysis of thioester-containing proteins during the innate immune response of Drosophila melanogaster. J Innate Immun 3, 52-64) flies were raised at 25° C. with 60% humidity on standard cornmeal-agar medium. Seven-day-old female flies were infected by septic injury with a thin tungsten needle previously dipped in an E. coli suspension diluted in PBS and kept at 29° C. 1 and 24 hours after infection, 18.4 nl of peptides (1 mM) diluted in PBS or PBS alone were injected into the fly body cavity (Nanoject II apparatus; Drummond Scientific). Because log-rank analysis can only compare two survival curves at a time in the same experiment, we decided to compute the median lethal time 50 (LT50) and the survival rate at 96 hours to perform One-way ANOVA statistical analysis.

[3] = biological target: T1, E. coli SC (^EcSC, beta ring, DnaN) (Escherichia coli, UniProt P0A988); experiment: ITC, peptide interaction with E. coli sliding clamp; format: binding
T1 construct: inferred from the pET15b vector and the Ni-NTA/imidazole purification; made in house; host or cells: E. coli BL21 (DE3) pLys

[4] = ITC 30° C., Table 2B, ^Ec70S, Ni = no specific interaction
[5] = ITC 30° C., Table 2B, ^Ec70S, Ni = no specific interaction, FITC peptides (*) values not well defined
[6] = ITC 25° C., E. coli SC (beta ring)
[7] = ITC 30° C. (303.15 K), Table 2A, ^EcSC, Ni = no specific interaction
[8] = ITC 30° C., Table 2A, ^EcSC, Ni = no specific interaction
[9] = ITC 25° C., E. coli ribosome (70S)
[10] = ITC, 30° C., E. coli ribosome, FITC-Onc112 series

T1 sequence (P0A988 whole entry): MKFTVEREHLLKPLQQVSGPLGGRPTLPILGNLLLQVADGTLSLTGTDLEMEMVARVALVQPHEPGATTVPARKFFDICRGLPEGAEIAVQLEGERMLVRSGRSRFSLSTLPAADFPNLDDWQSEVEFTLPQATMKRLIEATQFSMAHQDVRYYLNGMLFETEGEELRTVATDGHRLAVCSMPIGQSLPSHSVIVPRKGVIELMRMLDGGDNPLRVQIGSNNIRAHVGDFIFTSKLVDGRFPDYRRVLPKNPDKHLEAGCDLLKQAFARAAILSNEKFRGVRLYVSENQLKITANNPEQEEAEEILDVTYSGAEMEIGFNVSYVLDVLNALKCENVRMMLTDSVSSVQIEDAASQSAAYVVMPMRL

Row | Compound | interaction with ^Ec70S, in words ([1]; ITC 30° C.) | Kd [1, 4] [nM] | ΔG [1, 5] [kcal/mol] | ΔH [1, 5] [kcal/mol] | −TΔS [1, 5] [kcal/mol] | effect on survival of E. coli infected flies, in words [2] | fold increased survival of infected flies 96 h after injection [2] [fold] | ΔG [3, 6] [kcal/mol] | ΔH [3, 6] [kcal/mol] | interaction with ^EcSC, in words ([3]; ITC 30° C.) | ΔH [3, 7] [kcal/mol] | ΔG [3, 8] [kcal/mol] | −TΔS [3, 8] [kcal/mol] | ΔH (kcal/mole) [3, 7] | Kd (nM) [3, 8] | ΔG (kcal/mole) [3, 8] | −TΔS (kcal/mole) [3, 8] | further results
1 | CC[C@H](C)[C@H](NC(=O)[C@@H](CCCNC(=N)N)NC(=O)[C@H](CCCNC(=N)N)NC(=O)[C@@H]1CCCN1C(=O)[C@@H]1CCCN1C(=O)[C@H](CCCNC(=N)N)NC(=O)[C@@H]1CCCN1C(=O)[C@H](CCCNC(=N)N)NC(=O)[C@@H]1CCCN1C(=O)[C@H](CC(C)C)NC(=O)[C@H](Cc1ccc(O)cc1)NC(=O)[C@@H]1CCCN1C(=O)[C@@H]1CCCN1C(=O)[C@H](CCCCN)NC(=O)[C@H](CC(=O)O)NC(=O)[C@@H](N)C(C)C)C(=O)N[C@@H](Cc1ccc(O)cc1)C(=O)N[C@@H](CC(N)=O)C(=O)N[C@H](CCCNC(=N)N)C(=O)N[C@@H](CC(N)=O)C(=O)NCC(=O)N1CCC[C@H]1C(=O)N[C@@H](CCCNC(=N)N)C(=O)N[C@@H](CCC(N)=O)C(=O)N[C@@H](CC1CCCCC1)C(=O)N[C@@H](CC(=O)O)C(=O)N[C@@H](CC(C)C)C(=O)N[C@@H](Cc1ccccc1)C(=O)O [Peptide P30] (H-VDKPPYLPRPRPPR[dR]IYN[dR]NGPRQ[Cha]DLF-OH) | efficiently interact | 70.4 | -9.92 | -25.6 | 15.7 | two times higher protective effect than its parental peptide P28 | 4.5 | -9.2 | -14.6 | as efficiently as P7 alone | -13.5 | -9.28 | 4.2 | – | – | – | – | affinity for the ribosome relative to affinity for SC ([1]; from Table 2, ^Ec70S versus ^EcSC): three times higher affinity
2 | CC[C@H](C)[C@H](NC(=O)[C@@H](CCCNC(=N)N)NC(=O)[C@H](CCCNC(=N)N)NC(=O)[C@@H]1CCCN1C(=O)[C@@H]1CCCN1C(=O)[C@H](CCCNC(=N)N)NC(=O)[C@@H]1CCCN1C(=O)[C@H](CCCNC(=N)N)NC(=O)[C@@H]1CCCN1C(=O)[C@H](CC(C)C)NC(=O)[C@H](Cc1ccc(O)cc1)NC(=O)[C@@H]1CCCN1C(=O)[C@@H]1CCCN1C(=O)[C@H](CCCCN)NC(=O)[C@H](CC(=O)O)NC(=O)[C@@H](N)C(C)C)C(=O)N[C@@H](Cc1ccc(O)cc1)C(=O)N[C@@H](CC(N)=O)C(=O)N[C@H](CCCNC(=N)N)C(N)=O [Peptide P28, reference compound] (H-VDKPPYLPRPRPPR[dR]IYN[dR]-NH2; N-terminus assumed) | – | 84 | -9.82 | -23.9 | 14.0 | – | 2.5 | – | – | do not interact | – | – | – | Ni | Ni | Ni | Ni | Kd [1, 9]: 241 nM; ΔG (kcal/mol) [1, 9]: −9.2 (±0.1) kcal/mol; ΔH (kcal/mol) [1, 9]: −16.2 (±0.3) kcal/mol; affinity for ^Ec70S relative to Py ([1]; ITC 30° C.): fivefold lower; Kd ([1]; ITC 30° C., Table 2B, ^Ec70S, Ni = no specific interaction, listed as Onc112): ~84 nM; Kd [1, 10]: 241 nM; ΔG (kcal/mol) [1, 10]: −9.2 (±0.1) kcal/mol; ΔH (kcal/mol) [1, 10]: −16.2 (±0.3) kcal/mol
3 | CC(=O)N[C@@H](CCC(N)=O)C(=O)N[C@@H](CC1CCCCC1)C(=O)N[C@@H](CC(=O)O)C(=O)N[C@@H](CC(C)C)C(=O)N[C@@H](Cc1ccccc1)C(=O)O [Peptide P7, Ac-QChaDLF-OH, reference compound] (Ac-Q[Cha]DLF-OH) | does not specifically bind | – | – | – | – | has no effect on fly survival | – | -9.2 | -15.4 | – | -13.7 | -9.00 | 4.71 | – | – | – | – | Kd (nM) [1, 4]: Ni; ΔG (kcal/mole) [1, 5]: Ni; ΔH (kcal/mole) [1, 5]: Ni; −TΔS (kcal/mole) [1, 5]: Ni; ΔH ([3]; ITC 30° C., E.coli SC, specificity comparison with PCNA): -12.05 kcal/mol; Kd ([3]; dissociation constant (Kd) for ^EcSC, at 30° C.): 400 nM; fold increase of affinity for ^EcSC compared to natural SC binding peptide (RQLVLGL) ([3]; versus RQLVLGL from E. coli DNA polymerase IV): 50 fold
4 | CC[C@H](C)[C@H](NC(=O)[C@@H]1CCCN1C(=O)[C@H](CCCNC(=N)N)NC(=O)[C@@H]1CCCN1C(=O)[C@@H]1CCCN1C(=O)[C@@H](NC(=O)[C@@H]1CCCN1C(=O)[C@H](CCCNC(=N)N)NC(=O)[C@@H]1CCCN1C(=O)[C@H](CC(C)C)NC(=O)[C@H](Cc1ccc(O)cc1)NC(=O)[C@H](CO)NC(=O)CNC(=O)[C@H](CCCCN)NC(=O)[C@H](CC(=O)O)NC(=O)[C@@H](NC(=O)[C@H](CCCCN)NC(=O)c1ccc2c(c1)C(=O)OC21c2ccc(O)cc2Oc2cc(O)ccc21)C(C)C)[C@@H](C)O)C(=O)N[C@@H](Cc1ccc(O)cc1)C(=O)N[C@@H](CC(N)=O)C(=O)N[C@@H](CCCNC(=N)N)C(=O)N[C@@H](CC(N)=O)C(=O)NCC(=O)N1CCC[C@H]1C(=O)N[C@@H](CCCNC(=N)N)C(=O)N[C@@H](CCC(N)=O)C(=O)N[C@@H](CC1CCCCC1)C(=O)N[C@@H](CC(=O)O)C(=O)N[C@@H](CC(C)C)C(=O)N[C@@H](Cc1ccccc1)C(=O)O [Peptide P150] | – | – | -6.27 | -13 | 6.7 | – | – | – | – | similarly interacts | -17.2 | -8.99 | 8.21 | – | – | – | – | Kd ([1]; ITC 30° C., Table 2B, ^Ec70S, FITC peptides (*), values not well defined, weak interaction): > 10000 nM
5 | CC[C@H](C)[C@H](NC(=O)[C@@H](CCCNC(=N)N)NC(=O)[C@H](CCCNC(=N)N)NC(=O)[C@@H]1CCCN1C(=O)[C@@H]1CCCN1C(=O)[C@H](CCCNC(=N)N)NC(=O)[C@@H]1CCCN1C(=O)[C@H](CCCNC(=N)N)NC(=O)[C@@H]1CCCN1C(=O)[C@H](CC(C)C)NC(=O)[C@H](Cc1ccc(O)cc1)NC(=O)[C@@H]1CCCN1C(=O)[C@@H]1CCCN1C(=O)[C@H](CCCCN)NC(=O)[C@H](CC(=O)O)NC(=O)[C@@H](N)C(C)C)C(=O)N[C@@H](Cc1ccc(O)cc1)C(=O)N[C@@H](CC(N)=O)C(=O)N[C@H](CCCNC(=N)N)C(=O)N[C@@H](CC(N)=O)C(=O)NCC(=O)N1CCC[C@H]1C(=O)N[C@@H](CCCNC(=N)N)C(=O)N[C@@H](CC1CCCCC1)C(=O)N[C@@H](Cc1ccccc1)C(=O)N[C@@H](CCC(N)=O)C(=O)N[C@@H](CC(C)C)C(=O)N[C@@H](CC(=O)O)C(=O)O [Peptide P120] (H-VDKPPYLPRPRPPR[dR]IYN[dR]NGPR[Cha]FQLD-OH) | – | 101 | -9.85 | -13 | 3.12 | does not statistically differ from that measured with P28 | – | – | – | fail to interact | – | – | – | Ni | Ni | Ni | Ni | –
